Reference: patent US20220241416A1, “METHODS FOR THE IDENTIFICATION OF SARM1 NADASE ACTIVITY INHIBITORS AND USES THEREOF” (Bar Ilan University, priority 2021, published 2022)

Assays:
zfSARM1 = target: T1, zfSARM1 (Danio rerio, UniProt F1QWA8); assay: Effect of hSARM1 inhibitors on zfSARM1 NADase activity (ADPR by HPLC); type: biochemical, Zebrafish; conditions: 50 μM NAD+; ADPR production by HPLC
T1 sequence (F1QWA8 1-713): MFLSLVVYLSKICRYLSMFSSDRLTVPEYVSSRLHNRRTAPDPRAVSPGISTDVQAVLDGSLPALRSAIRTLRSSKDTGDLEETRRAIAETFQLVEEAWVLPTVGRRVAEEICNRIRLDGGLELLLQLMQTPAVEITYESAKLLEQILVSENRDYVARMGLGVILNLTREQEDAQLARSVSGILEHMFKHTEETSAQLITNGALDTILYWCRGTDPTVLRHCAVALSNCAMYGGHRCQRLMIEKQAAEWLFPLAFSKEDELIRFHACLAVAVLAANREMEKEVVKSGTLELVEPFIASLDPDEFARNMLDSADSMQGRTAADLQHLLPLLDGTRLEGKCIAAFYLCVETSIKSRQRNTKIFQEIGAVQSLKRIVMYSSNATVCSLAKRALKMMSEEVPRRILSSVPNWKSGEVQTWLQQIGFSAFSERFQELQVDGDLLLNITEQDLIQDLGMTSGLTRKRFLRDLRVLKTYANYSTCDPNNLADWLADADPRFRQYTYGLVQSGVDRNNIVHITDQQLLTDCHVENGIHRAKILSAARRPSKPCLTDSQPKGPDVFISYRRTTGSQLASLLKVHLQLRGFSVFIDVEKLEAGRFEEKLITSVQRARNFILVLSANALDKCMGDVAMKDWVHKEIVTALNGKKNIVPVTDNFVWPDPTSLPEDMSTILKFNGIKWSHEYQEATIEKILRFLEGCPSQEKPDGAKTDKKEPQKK

hSARM1 = target: T2, hSARM1 (Homo sapiens, UniProt Q6SZW1); assay: High-throughput resazurin fluorescence inhibitor screen; type: biochemical; conditions: 1 mM NAM; pre-incubation 10 minutes at room temperature
T2 construct: hSARM1w.t; (26ERL . . . GPT724) that was not mutated in E642, was also expressed and isolated; 6xHis (N); TEV cleavage site (N); made in house; host or cells: HEK293F suspension cells
T2 sequence (Q6SZW1 with tags, fused parts or gaps): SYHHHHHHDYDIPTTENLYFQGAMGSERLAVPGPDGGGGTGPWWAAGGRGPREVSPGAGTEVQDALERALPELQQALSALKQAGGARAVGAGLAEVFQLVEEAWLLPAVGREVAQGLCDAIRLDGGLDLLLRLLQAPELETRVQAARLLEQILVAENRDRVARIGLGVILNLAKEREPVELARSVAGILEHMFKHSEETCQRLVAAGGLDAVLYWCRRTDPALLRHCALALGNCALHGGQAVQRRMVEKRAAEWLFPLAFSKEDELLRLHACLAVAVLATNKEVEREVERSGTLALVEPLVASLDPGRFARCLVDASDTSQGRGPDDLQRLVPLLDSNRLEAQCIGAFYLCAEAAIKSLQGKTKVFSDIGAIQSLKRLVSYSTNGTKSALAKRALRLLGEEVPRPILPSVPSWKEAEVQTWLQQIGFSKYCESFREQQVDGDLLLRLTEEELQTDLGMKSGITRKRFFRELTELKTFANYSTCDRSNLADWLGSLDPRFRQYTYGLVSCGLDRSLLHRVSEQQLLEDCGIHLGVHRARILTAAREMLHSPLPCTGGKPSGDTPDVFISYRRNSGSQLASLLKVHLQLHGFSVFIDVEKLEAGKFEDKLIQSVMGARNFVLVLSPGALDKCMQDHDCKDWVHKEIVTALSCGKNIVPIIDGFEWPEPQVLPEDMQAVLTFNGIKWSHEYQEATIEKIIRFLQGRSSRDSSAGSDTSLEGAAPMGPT
Procedure: The high-throughput inhibitor-screening assay was preformed using the MultiDrop 384 microplate dispenser (Thermo Scientific) and 1536-well black/black non-binding Microplates (Greiner Bio-One).
First, 10 nano-liters of each of the 142000 screened compounds, solubilized in DMSO, were plated using Echo® 550 Liquid Handler (Sunny vale, CA, USA). Then. 5 micro liters of purified SARM1 (at 50 Nano-Molar concentration) in 25 mM HEPES pH 7.5, 150 mM NaCl were added to each well for 10 minutes incubation in 25° C. Next, 2.5 Micro Liters of NAD+(in 0.25 Micro-Molar concentration, in 25 mM HEPES pH 7.5, 150 mM NaCl) were added to each well and incubated for 70 min at 37° C. The compounds concentration at this point were […].
Measurement of NAD+ concentrations were made by a modified enzymatic coupled cycling assay. […] Fluorescent signals were measured by PheraStar FS plate reader (BMG Labtech, Ortenberg, Germany) at 540-nm excitation and 590-nm emission wavelengths. […]
To discover new and effective inhibitors for hSARM1, we have applied a modified fluorescence assay for high throughput screening. The adaptations introduced in this assay aim to achieve: stable fluorescent signal over time, good sensitivity for inhibition by screened compounds, high signal-to-noise, good reproducibility, accuracy, and diminishing of false-positive readouts. […]

IC50 (zfSARM1): 227 µM | fluorescence output response (hSARM1): hSARM1 inhibition
Structure (SMILES): NC(=O)c1cccnc1 [NAM, nicotinamide, reference compound]
